Consider 26 compounds from patent US6887712B1, “Methods and compositions to lower plasma cholesterol levels” (AtheroGenics, Inc., priority 1998, dated 2005).

Test [1] deals with plasma cholesterol. Description: Plasma cholesterol lowering in hamsters. Further details: species or system hamster. To be noted: ability to lower plasma cholesterol in vivo in hamsters, yes/no. As to the method:
The monosuccinic acid ester of probucol and several other compounds were tested in vitro in the immunoreactivity cell-free assay described above in Example 3 and in vivo in hamsters for their ability to lower plasma cholesterol.

The target of test [2] is T1, specific epitope on apoB-100 of LDL (Homo sapiens, UniProt P04114).
T1 construct: from tissue; host or cells: LDL particles (plasma lipoprotein)
Put plainly: Immunoreactivity cell-free sandwich ELISA: binding of LDL to capture anti-apoB monoclonal antibody. To be noted: for Cell-Free Assay: immunoreactivity cell-free assay of Example 3, yes/no. From the text: To determine if the binding of the monosuccinic acid ester to VLDL and LDL can cause a change in the structure of apoB-100, an immunoreactivity assay was designed. This is a sandwich ELISA assay which measures the expression of a specific epitope on apoB-100. Essentially the sandwich ELISA consists of a specific monoclonal antibody directed to that epitope on apoB-100 as a capture antibody laid onto a microtitre plate. […] A second polyclonal antibody is then used to quantify the amount of LDL captured.
The detailed immunoreactivity protocol is as follows. A nunc maxi-sorp microtiter plate is coated overnight at 4° C. with 100 μl of Anti-Human ApoB monoclonal antibody from Boehringer Mannheim (catalog # 1533 975) diluted 1:1000 in PBS pH 7.4. The compounds are dissolved in DMSO with appropriate concentration of LDL for 15 minutes and incubated at 37° C.
The coated microtiter plate is washed three times with 200 μl PBS/0.05% tween, and a sample of 100 μl LDL/Compound or LDL standard is added to each well. The plates are then incubated for 2 hours at room temperature.
The microtiter plate is washed three times with 200 μl PBS/0.05% tween, and 100 μl of 1:2000 Polyclonal Human Anti-ApolipoproteinB from Boehringer Mannheim (catalog # 726 494) in PBS/tween 0.05% is added. The plate is incubated for one hour at room temperature.
The microtiter plate is washed three times with 200 ul PBS/0.05% tween, and 100 μl of 1:2000 Anti-Sheep Ig peroxidase from Boehringer Mannheim (catalog # 605 345) in PBS/05% tween is added. The plate is incubated for one hour at room temperature.
The microtiter plate is washed three times with 200 ul PBS/0.05% tween, and 100 μl of TMB substrate is added and incubated for 5-10 minutes in the dark. The reaction is stopped with 15 μl 8N H2SO4 and read on the Bio-Rad Microplate plate reader at 450 nm within 30 minutes.

Test [3] concerns the target T2, purified human LDL (Homo sapiens, UniProt P04114).
T2 construct: from tissue; host or cells: human LDL particles (plasma lipoprotein)
Put plainly: Agarose electrophoresis of purified human LDL mixed with compound. The test is classed as binding. As to the method:
Agarose electrophoresis is a technique used to separate and study lipoproteins. The monosuccinic acid ester of probucol was added to purified human LDL and the mixture was run on agarose electrophoresis.

For test [4], the system named is LDL cholesterol, HDL, plasma triglycerides. To be noted: human, in vivo; cited from earlier work.
In test [5] the test system is total plasma cholesterol. Put plainly: Cholesterol lowering in mice lacking functional LDL receptors. In kind it is in vivo, mouse. The following applies: LDL receptor-deficient mice, 150 mg/kg/day oral with high fat/high cholesterol diet, 12 weeks. As to the method:
To explore whether the enhanced clearance is mediated by the tissue LDL receptors, the major clearance mechanism for LDL in the body, the LDL lowering activity of the monosuccinic acid ester of probucol was tested in a mouse model that lacks functional LDL receptors (eliminated through genetic engineering).

Test [6] relates to VLDL and LDL clearance. Put plainly: Lipoprotein turnover study in monkeys (stable isotope labelling of apoB-100). The test is classed as in vivo, monkey. To be noted: no species or dose stated. As to the method:
A lipoprotein turnover study was performed in monkeys that were dosed with the monosuccinic acid ester of probucol (25 mg/kg/day for one four weeks). The clearance rates of VLDL and LDL were examined before and after treatment of the animals using a stable isotope technique to label apoB-100 in VLDL and LDL.

T1 sequence (P04114 28-4563): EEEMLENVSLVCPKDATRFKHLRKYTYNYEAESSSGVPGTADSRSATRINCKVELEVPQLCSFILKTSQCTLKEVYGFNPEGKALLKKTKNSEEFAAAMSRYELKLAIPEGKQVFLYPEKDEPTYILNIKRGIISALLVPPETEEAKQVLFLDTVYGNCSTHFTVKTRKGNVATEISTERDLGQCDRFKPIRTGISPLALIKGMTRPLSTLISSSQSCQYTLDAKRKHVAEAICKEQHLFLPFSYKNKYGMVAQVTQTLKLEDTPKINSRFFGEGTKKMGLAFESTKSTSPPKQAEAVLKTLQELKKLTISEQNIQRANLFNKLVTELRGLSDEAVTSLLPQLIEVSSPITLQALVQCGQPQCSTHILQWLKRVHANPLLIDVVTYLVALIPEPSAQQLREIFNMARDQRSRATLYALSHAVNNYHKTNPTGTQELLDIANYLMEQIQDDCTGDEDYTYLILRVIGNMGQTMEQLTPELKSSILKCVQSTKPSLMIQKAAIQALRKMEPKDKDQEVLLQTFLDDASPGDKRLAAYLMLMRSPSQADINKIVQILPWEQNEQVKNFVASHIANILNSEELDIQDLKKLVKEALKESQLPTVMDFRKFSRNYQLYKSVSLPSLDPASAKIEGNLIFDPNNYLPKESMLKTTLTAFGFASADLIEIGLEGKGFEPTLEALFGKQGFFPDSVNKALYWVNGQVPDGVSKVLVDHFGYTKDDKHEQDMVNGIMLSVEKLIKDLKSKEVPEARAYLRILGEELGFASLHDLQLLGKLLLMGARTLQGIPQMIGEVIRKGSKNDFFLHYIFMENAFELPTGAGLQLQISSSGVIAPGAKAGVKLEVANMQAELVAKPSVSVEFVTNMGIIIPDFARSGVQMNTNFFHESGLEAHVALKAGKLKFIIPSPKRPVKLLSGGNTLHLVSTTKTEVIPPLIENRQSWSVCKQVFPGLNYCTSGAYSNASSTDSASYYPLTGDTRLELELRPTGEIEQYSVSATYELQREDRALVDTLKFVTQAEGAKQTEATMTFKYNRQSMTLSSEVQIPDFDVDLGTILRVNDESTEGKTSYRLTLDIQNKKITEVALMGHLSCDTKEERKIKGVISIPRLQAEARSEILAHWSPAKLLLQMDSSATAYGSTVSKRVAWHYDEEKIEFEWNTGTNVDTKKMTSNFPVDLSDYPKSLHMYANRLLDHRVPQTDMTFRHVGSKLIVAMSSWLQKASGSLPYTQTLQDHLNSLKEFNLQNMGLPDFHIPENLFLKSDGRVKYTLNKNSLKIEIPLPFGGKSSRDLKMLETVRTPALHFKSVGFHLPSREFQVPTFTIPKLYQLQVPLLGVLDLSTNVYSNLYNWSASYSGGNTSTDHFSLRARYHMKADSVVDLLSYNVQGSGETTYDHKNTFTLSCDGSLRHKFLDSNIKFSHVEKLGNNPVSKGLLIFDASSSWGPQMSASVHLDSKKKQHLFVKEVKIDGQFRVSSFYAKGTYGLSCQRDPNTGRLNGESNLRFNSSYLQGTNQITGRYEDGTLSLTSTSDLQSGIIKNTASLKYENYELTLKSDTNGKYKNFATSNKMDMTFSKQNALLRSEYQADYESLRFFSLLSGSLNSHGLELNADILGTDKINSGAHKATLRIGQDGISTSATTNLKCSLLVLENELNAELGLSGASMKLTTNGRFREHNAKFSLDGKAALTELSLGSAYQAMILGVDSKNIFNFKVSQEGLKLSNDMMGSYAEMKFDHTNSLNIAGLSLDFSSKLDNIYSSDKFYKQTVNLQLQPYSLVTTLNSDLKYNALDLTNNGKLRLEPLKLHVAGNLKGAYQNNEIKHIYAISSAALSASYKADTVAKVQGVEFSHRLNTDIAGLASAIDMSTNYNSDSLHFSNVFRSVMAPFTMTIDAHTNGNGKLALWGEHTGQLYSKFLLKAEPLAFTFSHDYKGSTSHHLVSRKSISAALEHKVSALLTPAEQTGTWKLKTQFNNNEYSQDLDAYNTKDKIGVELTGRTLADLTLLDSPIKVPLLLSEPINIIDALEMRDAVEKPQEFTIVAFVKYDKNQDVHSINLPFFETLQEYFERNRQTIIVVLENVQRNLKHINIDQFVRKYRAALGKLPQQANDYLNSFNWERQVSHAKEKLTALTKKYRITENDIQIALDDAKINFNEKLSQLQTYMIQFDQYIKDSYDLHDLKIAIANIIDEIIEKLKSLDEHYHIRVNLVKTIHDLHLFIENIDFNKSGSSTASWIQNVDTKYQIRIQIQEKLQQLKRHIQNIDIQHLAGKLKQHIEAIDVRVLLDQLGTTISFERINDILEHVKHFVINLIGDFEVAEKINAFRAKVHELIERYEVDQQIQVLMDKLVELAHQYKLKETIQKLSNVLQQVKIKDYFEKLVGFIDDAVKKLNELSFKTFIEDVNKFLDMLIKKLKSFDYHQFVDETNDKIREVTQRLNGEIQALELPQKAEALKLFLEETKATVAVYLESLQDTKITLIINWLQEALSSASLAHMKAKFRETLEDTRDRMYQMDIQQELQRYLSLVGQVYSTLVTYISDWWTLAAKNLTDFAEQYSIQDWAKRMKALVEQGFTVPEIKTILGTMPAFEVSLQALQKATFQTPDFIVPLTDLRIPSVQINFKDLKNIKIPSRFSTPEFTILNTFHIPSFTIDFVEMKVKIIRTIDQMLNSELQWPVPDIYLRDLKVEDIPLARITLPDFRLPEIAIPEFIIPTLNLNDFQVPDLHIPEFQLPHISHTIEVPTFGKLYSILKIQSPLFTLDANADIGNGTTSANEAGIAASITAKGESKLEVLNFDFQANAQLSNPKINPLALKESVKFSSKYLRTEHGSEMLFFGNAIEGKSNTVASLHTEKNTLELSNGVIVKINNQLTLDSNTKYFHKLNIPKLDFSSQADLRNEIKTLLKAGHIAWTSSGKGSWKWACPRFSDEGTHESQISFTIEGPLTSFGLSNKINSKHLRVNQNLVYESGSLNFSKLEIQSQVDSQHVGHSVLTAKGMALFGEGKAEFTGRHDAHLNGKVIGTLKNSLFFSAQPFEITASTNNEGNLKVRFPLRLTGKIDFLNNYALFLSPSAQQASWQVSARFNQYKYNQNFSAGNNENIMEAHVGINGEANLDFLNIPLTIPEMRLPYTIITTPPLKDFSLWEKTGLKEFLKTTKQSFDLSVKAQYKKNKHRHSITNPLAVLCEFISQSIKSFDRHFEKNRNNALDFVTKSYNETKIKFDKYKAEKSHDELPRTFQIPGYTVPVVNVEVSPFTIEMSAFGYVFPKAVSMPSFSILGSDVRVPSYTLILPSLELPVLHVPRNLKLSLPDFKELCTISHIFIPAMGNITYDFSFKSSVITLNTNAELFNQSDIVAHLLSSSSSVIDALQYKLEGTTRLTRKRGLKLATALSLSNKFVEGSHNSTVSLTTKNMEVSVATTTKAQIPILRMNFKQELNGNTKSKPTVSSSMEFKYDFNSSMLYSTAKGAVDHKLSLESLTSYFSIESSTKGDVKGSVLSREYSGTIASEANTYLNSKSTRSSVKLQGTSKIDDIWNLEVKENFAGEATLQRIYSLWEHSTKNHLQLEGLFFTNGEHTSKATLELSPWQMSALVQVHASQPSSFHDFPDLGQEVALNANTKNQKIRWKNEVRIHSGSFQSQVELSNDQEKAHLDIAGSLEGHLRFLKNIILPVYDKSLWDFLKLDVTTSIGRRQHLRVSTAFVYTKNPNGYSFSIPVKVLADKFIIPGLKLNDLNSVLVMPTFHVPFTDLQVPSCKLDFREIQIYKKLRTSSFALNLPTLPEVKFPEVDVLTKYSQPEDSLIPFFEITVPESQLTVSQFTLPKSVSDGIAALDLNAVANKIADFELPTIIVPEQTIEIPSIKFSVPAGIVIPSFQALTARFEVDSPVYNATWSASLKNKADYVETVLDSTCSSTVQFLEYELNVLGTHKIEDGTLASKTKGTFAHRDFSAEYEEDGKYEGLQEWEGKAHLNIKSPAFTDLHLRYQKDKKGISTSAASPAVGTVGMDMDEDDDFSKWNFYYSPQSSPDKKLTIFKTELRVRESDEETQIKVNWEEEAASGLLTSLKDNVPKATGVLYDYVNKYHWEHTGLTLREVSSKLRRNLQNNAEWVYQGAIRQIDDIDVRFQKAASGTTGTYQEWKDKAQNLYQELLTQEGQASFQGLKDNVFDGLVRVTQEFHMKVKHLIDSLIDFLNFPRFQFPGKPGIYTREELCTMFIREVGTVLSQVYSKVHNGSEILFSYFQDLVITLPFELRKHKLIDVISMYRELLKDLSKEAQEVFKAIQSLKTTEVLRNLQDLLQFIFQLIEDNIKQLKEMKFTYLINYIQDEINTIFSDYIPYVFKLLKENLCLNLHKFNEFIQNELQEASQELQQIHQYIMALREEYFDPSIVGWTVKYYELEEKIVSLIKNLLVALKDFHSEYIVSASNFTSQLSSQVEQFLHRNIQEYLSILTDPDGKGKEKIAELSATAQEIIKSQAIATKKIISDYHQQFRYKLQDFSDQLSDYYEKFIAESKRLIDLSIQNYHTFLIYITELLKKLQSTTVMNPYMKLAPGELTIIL
T2 sequence (P04114 28-4563): as above

Take `CC(C)(C)c1cc(SCc2ccc([N+](=O)[O-])cc2[N+](=O)[O-])cc(C(C)(C)C)c1O` [2,6-di-tert-butyl-4-[(2,4-dinitrobenzyl)thio]phenol]: in test [1], the Hamster result is “no”. Moreover, the “Cell-Free Assay” value in test [2] is listed as “no”.

As for `CC(C)(Sc1cc(C(C)(C)C)c(O)c(C(C)(C)C)c1)Sc1cc(C(C)(C)C)c(OCC(O)C(O)C(O)C(=O)O)c(C(C)(C)C)c1` (stereo not shown) [5-[4-[[1-[[3,5-bis(1,1-dimethylethyl)-4-hydroxyphenyl)thio]-1-methylethyl]thioo-2,6-bis(1,1-dimethylethyl)phenoxy-2,3,4-trihydroxy-pentanoic acid], the Hamster entry in test [1] is given as “no”. Also, in test [2], the “Cell-Free Assay” value was “yes”.

Consider `CC(C)(Sc1cc(C(C)(C)C)c(O)c(C(C)(C)C)c1)Sc1cc(C(C)(C)C)c(OCC(O)C(O)C(O)C(O)CO)c(C(C)(C)C)c1` (stereo not shown) [probucol-2,3,4,5,6-pentahydroxyhexyl ether], for which the Hamster result in test [1] is listed as “yes”. Also, the “Cell-Free Assay” value in test [2] is on record as “yes”.

For the compound `CC(C)(Sc1cc(C(C)(C)C)c(O)c(C(C)(C)C)c1)Sc1cc(C(C)(C)C)c(OC(=O)CCCC(=O)O)c(C(C)(C)C)c1` [pentanedioic acid, mono[4-[[1-[3,5-bis(1,1-dimethylethyl)-4-hydroxyphenyl]thio]1-methylethyl]thio-2,6-bis(1,1-dimethylethyl)phenyl]ester], the Hamster entry in test [1] is on record as “yes”. Besides, the “Cell-Free Assay” value in test [2] is recorded as “yes”.

Turning to “Mono[4-(3,5-di-tert-butyl-4-hydroxybenzyl)2,6-di-tert-butylphenyl] succinate”, in test [1], the Hamster entry is “no”. Besides, the “Cell-Free Assay” value in test [2] is listed as “yes”.

On to `CCCN(CCC)C(=O)c1ccc(CSc2cc(C(C)(C)C)c(O)c(C(C)(C)C)c2)cc1` [N,N-dipropyl-4-[(3,5-di-tert-butyl-4-hydroxyphenylthio)methyl]benzamide], for which the Hamster entry in test [1] is “no”. The “Cell-Free Assay” value in test [2] was “no”.

`CC(C)(C)c1cc(SCc2ccc(C(F)(F)F)cc2)cc(C(C)(C)C)c1O` [2,6-di-tert-butyl-4-thio-(4′-(trifluoromethyl)benzyl) phenol]: the Hamster entry in test [1] is reported as “yes”. Also, in test [2], the “Cell-Free Assay” value is on record as “yes”.

On to `Cc1c(C)c2c(c(C)c1OC(=O)CCC(=O)O)CC[C@@](C)(CCC[C@H](C)CCC[C@H](C)CCCC(C)C)O2` [vitamin E succinate, reference compound], for which the “effect on binding of LDL to the capture monoclonal antibody (FIG. 6a)” value (“effect on binding of LDL” below) in test [2] is “increased the binding of LDL”.

As for `CN(C)C(=O)c1ccc(CSc2cc(C(C)(C)C)c(O)c(C(C)(C)C)c2)cc1` [N,N-dimethyl-4-[(3,5-di-tert-butyl-4-hydroxyphenylthio)methyl]benzamide], in test [1], the Hamster entry is recorded as “yes”. Moreover, the “Cell-Free Assay” value in test [2] was “no”.

Consider vitamin E [reference compound], for which the “effect on binding of LDL” value in test [2] is “no significant effect”.

As for `CC(C)(C)c1cc(SCC(=O)c2ccc([N+](=O)[O-])cc2)cc(C(C)(C)C)c1O` [α-(3,5-di-tert-butyl-4-hydroxyphenylthio)-4-nitro-acetophenone], the Hamster entry in test [1] is recorded as “yes”. The “Cell-Free Assay” value in test [2] is “no”.

Regarding “Mono[4-(3,5-di-tert-butyl-4-hydroxybenzyl)-2,6-di-tert-butylphenyl]glutarate”, in test [1], the Hamster result is recorded as “no”. Further, the “Cell-Free Assay” value in test [2] is listed as “no”.

As to `CC(C)(C)c1cc(SCc2ccc(F)cc2)cc(C(C)(C)C)c1O` [2,6-di-tert-butyl-4-[(4-fluorobenzyl)thio]phenol], in test [1], the Hamster entry was “no”. Further, in test [2], the “Cell-Free Assay” value was “no”.

Consider `CC(C)(Sc1cc(C(C)(C)C)c(O)c(C(C)(C)C)c1)Sc1cc(C(C)(C)C)c(OC[C@@H](O)[C@@H](O)[C@H](O)[C@@H](O)C=O)c(C(C)(C)C)c1` [6-deoxy-6-(probucol-1-yl)-D-glucose], for which the Hamster result in test [1] was “yes”. In addition, in test [2], the “Cell-Free Assay” value is reported as “yes”.

As for `O=C(O)CCC(=O)O` [succinate, reference compound], the “effect on binding of LDL” value in test [2] is “no significant effect”.

`COC(=O)c1ccc(CSc2cc(C(C)(C)C)c(O)c(C(C)(C)C)c2)o1` [Methyl 5-(3,5-id-tert-butyl-4-hydroxyphenylthio)methyl-2-furoate]: the Hamster result in test [1] is reported as “yes”. In test [2], the “Cell-Free Assay” value is recorded as “yes”.

Consider `CN(C)S(=O)(=O)c1ccc(CSc2cc(C(C)(C)C)c(O)c(C(C)(C)C)c2)cc1` [2,6-di-tert-butyl-4-thio-(4′-methyl-N,N-dimethylbenzenesulfonamide) phenol], for which the Hamster result in test [1] was “yes”. In addition, the “Cell-Free Assay” value in test [2] was “yes”.

As for `CC(C)(C)c1cc(SCc2cccc(C(F)(F)F)c2)cc(C(C)(C)C)c1O` [2,6-di-tert-butyl-4-[(3-trifluoromethyl)benzylthio]phenol], in test [1], the Hamster result is listed as “yes”. Moreover, in test [2], the “Cell-Free Assay” value is listed as “no”.

Take `CC(C)(C)c1cc(SCc2cccc(OC(F)(F)F)c2)cc(C(C)(C)C)c1O` [2,6-di-tert-butyl-4-[(3-trifluoromethoxy)benzylthio]phenol]: in test [1], the Hamster result is listed as “no”. In test [2], the “Cell-Free Assay” value is recorded as “no”.

With `CC(C)(Sc1cc(C(C)(C)C)c(O)c(C(C)(C)C)c1)Sc1cc(C(C)(C)C)c(O)c(C(C)(C)C)c1` [probucol, 4,4′-(isopropylidenedithio) bis(2,6-di-tert-butylphenol), reference compound], the “shift of electrophoretic mobility of LDL” value in test [3] is reported as “did not shift the mobility of LDL”. Moreover, the “effect on binding of LDL” value in test [2] is “no significant effect”. Moreover, the “effect on plasma triglycerides” value in test [4] is given as “no effect”. Besides, in test [5], the “lowering of plasma cholesterol” value came to 17%. In test [6], the “effect on clearance of VLDL (general statement)” value is “little effect”.

In the case of `CN(C)C(=O)Cc1ccc(CSc2cc(C(C)(C)C)c(O)c(C(C)(C)C)c2)cc1` [N,N-dimethyl-4-[(3,5-di-tert-butyl-4-hydroxyphenylthio)methyl]phenylacetamide], the Hamster entry in test [1] is reported as “yes”. In test [2], the “Cell-Free Assay” value was “yes”.

Take `CCN(CC)S(=O)(=O)c1ccc(CSc2cc(C(C)(C)C)c(O)c(C(C)(C)C)c2)cc1` [N,N-diethyl-4-[3,5-di-tert-butyl-4-hydroxyphenylthio)methyl]benzene-sulfonamide]: the Hamster entry in test [1] was “no”. Also, the “Cell-Free Assay” value in test [2] was “no”.

For `CC(C)(C)c1cc(SCc2ccc(OC(=O)c3ccccc3)cc2)cc(C(C)(C)C)c1O` [4-[(3,5-di-tert-butyl-4-hydroxyphenylthio)methyl]phenyl benzoate], the Hamster entry in test [1] was “yes”. In addition, the “Cell-Free Assay” value in test [2] is “yes”.

Turning to “Mono[4-(3,5-di-tert-butyl-4-hydroxyphenacylthio)-2,6-di-tert-butylphenyl] succinate”, the Hamster entry in test [1] is on record as “no”. In addition, in test [2], the “Cell-Free Assay” value is reported as “yes”.

With `CC(C)(C)c1cc(SCc2ccc(CCO)cc2)cc(C(C)(C)C)c1O` [2,6-di-tert-butyl-4-thio-(4′-(methyl)phenylethyl alcohol))phenol], the Hamster result in test [1] is “yes”. The “Cell-Free Assay” value in test [2] is listed as “yes”.

Take `CC(C)(C)c1cc(SCc2ccc(F)cc2C(F)(F)F)cc(C(C)(C)C)c1O` [2,6-di-tert-butyl-4-[4-fluoro-2-(trifluoromethyl)benzylthio]phenol]: the Hamster result in test [1] is reported as “no”. Moreover, the “Cell-Free Assay” value in test [2] is listed as “no”.
